“And” between values parts separate entries of the source, which are not always exact repeats. Equal entries are not always repeated. Where two headings read alike, the source gives them in different places.
Legend:
[1] = test system: Influenza A (H1N1) virus FM1 strain; test: Mouse pneumonia model infected with influenza A (H1N1) virus FM1 strain (lung index); type: in vivo, ICR mice
Procedure: ICR mice were taken and randomly divided into: normal control group, model control group, ribavirin control group, compound 4, compound F1, compound F2, and compound F3 according to their weight class, and each drug was given in two dosage groups (10 mice in each group). Except for the normal control group, mice were slightly anesthetized with ether and infected with 15 LD50 H1N1 influenza virus liquid FM1 strain by nasal drops (30 μl per animal). The administration was started on the day of infection at 0.2 ml/10 g by gavage each time once a day for 4 days, and the normal control and model control groups were gavaged with distilled water under the same conditions. The mice were weighed and dissected on Day 5, and the lung was weighed to calculate lung index and lung index inhibition. The results were statistically processed using t-test for comparison between groups.
(§1) ICR mice were taken and randomly divided by weight class: normal control group, model control group, oseltamivir control group, compound 4, compound F4, compound F5, compound 5, and compound 7 according to their weight class, and each drug was given in two dosage groups (10 mice in each group). Except for the normal control group, mice were slightly anesthetized with ether and infected with 15 LD50 H1N1 influenza virus liquid (FM1/PR8 strain) by nasal drops (30 μl per each animal). The administration was started on the day of infection at 0.2 ml/10 g by gavage each time once a day for 4 days, and the normal control and model control groups were gavaged with distilled water under the same conditions. The mice were weighed and dissected on Day 5, and lung was weighed to calculate lung index and lung index inhibition. The results were statistically processed using t-test for comparison between groups.
(§2) ICR mice were taken and randomly divided into 9 groups according to the body weight: a normal control group, model control group, oseltamivir control group, and two dosage groups of Compound 9, Compound 12 and Compound 2, 10 mice in each group. Except the normal control group, mice were slightly anesthetized with ether and infected with 15 LD50 H1N1/PR8 influenza virus liquid by nasal drops at 30 μl per mouse. The administration was started on the day of infection, at 0.2 ml/10 g each time by gavage once a day for 4 days, and the normal control and model control groups were gavaged with distilled water under the same conditions. The mice were weighed and dissected on Day 5, and lungs were weighed to calculate lung index and lung index inhibition. The results were statistically processed using t-test for comparison between groups.

[2] = test system: Sendai strain of parainfluenza virus; type: in vivo
SARS-CoV-2 = test: Antiviral CPE assay against SARS-CoV-2 in VeroE6 cells; type: cell-based; settings: 100 TCID50, read-out: Inhibition rate (%) of viral CPE
human coronavirus OC43 = type: in vivo; settings: Table 6 (Example 17)
ACE2 receptor = ACE2 receptor (Homo sapiens, UniProt Q9BYF1); test: ACE2-293T/CMC cell membrane chromatography binding; settings: ACE2-293T/CMC column
[3] = test system: Influenza A (H1N1) virus PR8 strain; test: Mouse pneumonia model infected with influenza A (H1N1) virus PR8 strain (lung index); type: in vivo, ICR mice; settings: Table 3 (Example 14)
Procedure: as §1, §2

[4] = Acute toxicity test in mice (single gavage, 14-day observation); type: in vivo; settings: for mortality rate of animals: 14 days observation
Procedure: Seventy ICR mice, weighing 17-21 g, were randomly divided into 7 groups according to fasting body weight: a normal control group and 6 dose groups of 475, 633, 844, 1125, 1500 and 2000 mg of the test drug (compound 4)/kg, 10 mice in each group, 50/50 male and female. After fasting for about 15 h, each dosing group was administered once by gavage in a volume of 40 ml/kg, and the control group was gavaged with an equal volume of 0.5% sodium carboxymethylcellulose solution once/day, and the animals were observed continuously for 14 days after administration of the drug to observe the death of the animals.
Thirty ICR mice, weighing 17-21 g, were randomly divided into three groups according to their fasting body weight: a normal control group and 2000 mg and 4000 mg of test drug (Compound 12)/kg dose group, 10 mice in each group, 50/50 male and female. After fasting for about 15 h, each dosing group was given the drug once by gavage in a volume of 40 ml/kg, and the control group was given an equal volume of 0.5% sodium carboxymethylcellulose solution by gavage once/day, and the deaths of the animals were observed continuously for 14 days after the administration of the drug.

[5] = test system: Human Coronavirus 229E (HCoV-229E); test: animal or person; type: in vivo
[6] = Table 7 (Example 18), 3.75 mg/kg/d gavage for 4 days
[7] = Table 7 (Example 18), 7.5 mg/kg/d gavage for 4 days
[8] = Table 7 (Example 18), 15 mg/kg/d gavage for 4 days
[9] = Table 11 (Example 24), 7.5 mg/kg/d gavage for 4 days
[10] = Table 11 (Example 24), 15 mg/kg/d gavage for 4 days
[11] = 7.5 mg/kg gavage once a day for 4 days
[12] = dose groups of 1125 mg drug/kg and above

Chain of ACE2 receptor (Q9BYF1 18-805): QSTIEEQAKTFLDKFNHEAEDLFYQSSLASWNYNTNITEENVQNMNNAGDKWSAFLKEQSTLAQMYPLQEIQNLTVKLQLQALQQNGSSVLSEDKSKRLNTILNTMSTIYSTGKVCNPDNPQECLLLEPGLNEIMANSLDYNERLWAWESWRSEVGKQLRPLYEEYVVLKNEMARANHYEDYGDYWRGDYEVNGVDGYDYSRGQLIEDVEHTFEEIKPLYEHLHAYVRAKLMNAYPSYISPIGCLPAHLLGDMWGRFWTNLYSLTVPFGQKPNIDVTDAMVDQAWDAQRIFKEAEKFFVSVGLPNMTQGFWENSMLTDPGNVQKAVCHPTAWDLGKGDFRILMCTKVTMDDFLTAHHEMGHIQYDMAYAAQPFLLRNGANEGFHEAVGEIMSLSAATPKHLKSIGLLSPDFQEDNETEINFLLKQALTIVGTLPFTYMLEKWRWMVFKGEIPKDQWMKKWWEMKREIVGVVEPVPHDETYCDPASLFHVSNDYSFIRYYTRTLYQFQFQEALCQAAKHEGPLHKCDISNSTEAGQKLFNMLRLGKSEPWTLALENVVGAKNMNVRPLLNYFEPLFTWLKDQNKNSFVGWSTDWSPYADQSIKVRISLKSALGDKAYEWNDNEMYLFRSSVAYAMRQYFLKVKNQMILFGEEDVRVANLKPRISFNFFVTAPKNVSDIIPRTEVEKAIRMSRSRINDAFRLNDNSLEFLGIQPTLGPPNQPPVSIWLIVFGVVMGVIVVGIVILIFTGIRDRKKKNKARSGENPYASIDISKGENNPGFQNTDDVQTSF

Structure (SMILES): O=c1c(-c2ccccc2)coc2cc(OCCNC3CC3)ccc12 [Compound 4]
- inhibition in vivo at 25 mg/kg ([1]; Influenza A virus, H1N1, po, 96 h, Table 1 (Example 13), 25 mg/kg gavage once a day for 4 days, read-out: inhibition rate (%)): 23.7%
- inhibition in vivo at 50 mg/kg ([1]; Influenza A virus, H1N1, po, 96 h, Table 1 (Example 13), 50 mg/kg gavage once a day for 4 days, read-out: inhibition rate (%)): 39.3%
- inhibition in vivo at 20 mg/kg ([1]; Influenza A virus, H1N1, po, 96 h, Table 2 (Example 14), 20 mg/kg gavage once a day for 4 days, read-out: inhibition rate (%)): 15.1%
- inhibition in vivo at 40 mg/kg ([1]; Influenza A virus, H1N1, po, 96 h, Table 2 (Example 14), 40 mg/kg gavage once a day for 4 days, read-out: inhibition rate (%)): 54%
- lung index ([1]; Table 1 (Example 13), 25 mg/kg gavage once a day for 4 days): 1.09 ± 0.13
- lung index ([1]; Table 1 (Example 13), 50 mg/kg gavage once a day for 4 days): 1.01 ± 0.12
- lung index ([1]; Table 2 (Example 14), 20 mg/kg gavage once a day for 4 days): 1.04 ± 0.12
- lung index ([1]; Table 2 (Example 14), 40 mg/kg gavage once a day for 4 days): 0.89 ± 0.20
- inhibition rate % [2, 6]: 18.11%
- lung index [2, 6]: 0.73 ± 0.07 lung weight/100 g body weight
- inhibition rate % [2, 7]: 26.20%
- lung index [2, 7]: 0.72 ± 0.05 lung weight/100 g body weight
- inhibition rate % [2, 8]: 46.39%
- lung index [2, 8]: 0.70 ± 0.05 lung weight/100 g body weight
- inhibition rate % [2, 9]: 54.48%
- lung index [2, 9]: 0.77 ± 0.04 Lung weight * 100/body weight
- inhibition rate % [2, 10]: 45.45%
- lung index [2, 10]: 0.78 ± 0.04 Lung weight * 100/body weight
- inhibition at 1.95 µg/mL (SARS-CoV-2; Severe acute respiratory syndrome coronavirus 2, Vero C1008, drug concentration 1.95 μg/mL): 6.67 ± 2.89%
- inhibition at 3.9 µg/mL (SARS-CoV-2; Severe acute respiratory syndrome coronavirus 2, Vero C1008, drug concentration 3.9 μg/mL): 25 ± 5%
- inhibition at 7.8 µg/mL (SARS-CoV-2; Severe acute respiratory syndrome coronavirus 2, Vero C1008, drug concentration 7.8 μg/mL): 76.7 ± 2.89%
- inhibition at 15.6 µg/mL (SARS-CoV-2; Severe acute respiratory syndrome coronavirus 2, Vero C1008, drug concentration 15.6 μg/mL): 90 ± 5%
- inhibition rate % (human coronavirus OC43; 3.75 mg/kg/d gavage for 4 days): 33.28%
- lung index (human coronavirus OC43; 3.75 mg/kg/d gavage for 4 days): 0.81 ± 0.08 g lung weight × 100/g body weight
- inhibition rate % (human coronavirus OC43; 7.5 mg/kg/d gavage for 4 days): 32.42%
- lung index (human coronavirus OC43; 7.5 mg/kg/d gavage for 4 days): 0.82 ± 0.05 g lung weight × 100/g body weight
- inhibition rate % (human coronavirus OC43; 15 mg/kg/d gavage for 4 days): 47.43%
- lung index (human coronavirus OC43; 15 mg/kg/d gavage for 4 days): 0.79 ± 0.10 g lung weight × 100/g body weight
- Kd (ACE2 receptor): 1070 nM
- inhibition rate % [3, 11]: 23.91%
- lung index [3, 11]: 0.98 ± 0.11
- lung index ([3]; 15 mg/kg gavage once a day for 4 days): 0.83 ± 0.10
- inhibition rate % ([3]; 15 mg/kg gavage once a day for 4 days, 15 mg/kg): 54.04% and 60.27%
- mortality rate of animals ([4]; 475 mg/kg single gavage): 0%
- mortality rate of animals ([4]; 633 mg/kg single gavage): 0%
- mortality rate of animals ([4]; 844 mg/kg single gavage): 0%
- mortality rate of animals ([4]; 1125 mg/kg single gavage): 20%
- mortality rate of animals ([4]; 1500 mg/kg single gavage): 80%
- mortality rate of animals ([4]; 2000 mg/kg single gavage): 100%
- LD50 ([4]; Bliss method, single gavage, mice): 1299.054 mg of drug/kg
- maximum non-adverse effect dose ([4]; both, ICR, mouse, in vivo, 14 days): 475 mg of drug/kg
- peak of the deaths after the drug [4, 12]: 24 to 48 h
- time of animal deaths after the drug [4, 12]: ≤ 4 days
- maximum non-lethal dose ([4]; single gavage, mice): 844 mg of drug/kg
- inhibition in vivo at 40 mg/kg/day ([5]; Human coronavirus 229E, in Mus musculus, po, 96 h, Table 4 (Example 15), 40 mg/kg/d gavage for 4 days, read-out: inhibition rate (%)): 41.9%
- inhibition in vivo at 50 mg/kg/day ([5]; Human coronavirus 229E, in Mus musculus, po, 96 h, Table 4 (Example 15), 50 mg/kg/d gavage for 4 days, read-out: inhibition rate (%)): 41%
- inhibition in vivo at 7.5 mg/kg/day ([5]; Human coronavirus 229E, in Mus musculus, po, 96 h, Table 5 (Example 16), 7.5 mg/kg/d gavage for 4 days, read-out: inhibition rate (%)): 44.3%
- inhibition in vivo at 15 mg/kg/day ([5]; Human coronavirus 229E, in Mus musculus, po, 96 h, Table 5 (Example 16), 15 mg/kg/d gavage for 4 days, read-out: inhibition rate (%)): 76.5%
- inhibition in vivo at 30 mg/kg/day ([5]; Human coronavirus 229E, in Mus musculus, po, 96 h, Table 5 (Example 16), 30 mg/kg/d gavage for 4 days, read-out: inhibition rate (%)): 86.5%
- inhibition in vivo at 7.5 mg/kg/day ([5]; Human coronavirus 229E, in Mus musculus, po, 96 h, Table 10 (Example 23), 7.5 mg/kg/d gavage for 4 days, read-out: inhibition rate (%)): 50%
- lung index ([5]; Table 4 (Example 15), 40 mg/kg/d gavage for 4 days): 0.76 ± 0.02 g lung weight × 100/g body weight
- lung index ([5]; Table 4 (Example 15), 50 mg/kg/d gavage for 4 days): 0.76 ± 0.08 g lung weight × 100/g body weight
- lung index ([5]; Table 5 (Example 16), 7.5 mg/kg/d gavage for 4 days): 0.71 ± 0.11 g lung weight × 100/g body weight
- lung index ([5]; Table 5 (Example 16), 15 mg/kg/d gavage for 4 days): 0.67 ± 0.08 g lung weight × 100/g body weight
- lung index ([5]; Table 5 (Example 16), 30 mg/kg/d gavage for 4 days): 0.66 ± 0.05 g lung weight × 100/g body weight
- lung index ([5]; Table 10 (Example 23), 7.5 mg/kg/d gavage for 4 days): 0.81 ± 0.03 g lung weight × 100/g body weight

From patent US20250154121A1, “CYCLIC(ALKYL)(AMINO)ALKOXY-SUBSTITUTED ARYL-PYRONE COMPOUND AND USE THEREOF” (priority 2022, published 2025)
